In EP3876933B1, “NEUTROPHIL INFLAMMATION INHIBITOR AND USES THEREOF” (Chang Gung University of Science and Technology, priority 2018, dated 2020):

Assays:
human neutrophils [1] = experiment: Superoxide anion (O2˙-) generation in fMLF/CB-activated human neutrophils (SOD-inhibitable ferricytochrome c reduction); assay type: cell-based; settings: FMLP/CB-induced human neutrophils, mean ± S.E.M. (n = 3-5); for IC50 / inhibition at 10 µM: Neutrophil; for IC50: read-out: Superoxide Anion IC50
Description: (§1) Human neutrophils were obtained in lipopolysaccharide-free conditions by means of dextran sedimentation and Ficoll centrifugation.
O2˙^- production was determined based on the SOD-inhibitable reduction of ferricytochrome c. Briefly, neutrophils (6 × 10^5/mL) were treated with a candidate compound at 37 °C at various concentrations (0.001 to 10 µM) for 5 min after being supplementing with 0.5 mg/mL ferricytochrome c and 1 mM Ca^2+. Cells were then activated with fMLF (0.1 µM) for 10 min in the pre-process of cytochalasin B (CB, 1 µg/mL) for 3 min. Changes in absorbance with the reduction of ferricytochrome c at 550 nm were continuously monitored in a double-beam, six-cell positioner spectrophotometer with constant stirring (Hitachi U-3010, Tokyo, Japan). Calculations were based on the differences in the reactions with and without SOD (100 U ml^-1) divided by the extinction coefficient for the reduction of ferricytochrome c (ε = 21.1 mM^-1/10 mm).

human neutrophils [2] = experiment: Elastase release in fMLF/CB-activated human neutrophils (Methoxysuccinyl-Ala-Ala-Pro-Val-p-nitroanilide substrate); assay type: cell-based; settings: Neutrophil, FMLP/CB-induced human neutrophils, mean ± S.E.M. (n = 3-5); for IC50: read-out: Elastase Release IC50; for inhibition at 10 µM: at 10 µM concentration
Description: as §1
Methoxysuccinyl-Ala-Ala-Pro-Val-p-nitroanilide was employed as the elastase substrate for the determination of elastase release. Briefly, after supplementation with Methoxysuccinyl-Ala-Ala-Pro-Val-p-nitroanilide (100 µM), neutrophils (6 × 10^5/mL) were equilibrated at 37 °C for 2 min and incubated with a candidate compound at various concentrations for 5 min. Cells were then activated with fMLF (0.1 µM) for 10 min in the pre-process of CB (0.5 µg/mL) for 3 min, and changes in absorbance at 405 nm were continuously monitored to evaluate elastase release. Results are expressed as the percentage of elastase release in the drug-free control group, DMSO.

| Compound | IC50 (human neutrophils [1]) [nM] | IC50 (human neutrophils [2]) [µM] | inhibition at 10 µM (human neutrophils [1]; at 10 µM concentration) [%] | inhibition at 10 µM (human neutrophils [2]) [%] | Superoxide Anion Inhibition % (human neutrophils [1]; at 10 µM concentration) |
| --- | --- | --- | --- | --- | --- |
| Cn1nc(N)c2c(Nc3ccccc3)nc3ccccc3c21 [Compound 3, 4-Anilino-l-methyl-1H-pyrazolo[4,3-c]quinolin-3-amine] | 2390 ± 630 | 4.09 ± 1.02 | 93.9 ± 6.32 | 80.5 ± 2.57 | – |
| CC(=O)c1ccc(Nc2nc3ccccc3c3c2c(N)nn3C)cc1 [Compound 10, 4-(4-Acetoylanilino)-1-methyl-1H-pyrazolo[4,3-c]quinolin-3-amine] | 1580 | 4.63 ± 1.1 | 85.1 ± 1.66 | 57.2 | – |
| CSc1ccc(Nc2nc3ccccc3c3c2c(N)nn3C)cc1 [Compound 9, 1-Methyl-4-(4-methylthioanilino)-1H-pyrazolo[4,3-c]quinolin-3-amine] | > 10000 | > 10 | 47.7 ± 3.32 | 20.8 ± 3.75 | – |
| COc1cccc(Nc2nc3ccccc3c3c2c(N)nn3C)c1 [Compound 6, 4-(3-Methoxyanilino)-1-methyl-1H-pyrazolo[4,3-c]quinolin-3-amine] | > 10000 | > 10 | 27.5 ± 5.47 | 33.4 ± 6.04 | – |
| Cn1nc(N)c2c(Nc3ccccc3S)nc3ccccc3c21 [Compound 16, 2-[(3-amino-1-methyl-1H-pyrazolo[4,3-c]quinolin-4-yl)amino]benzenethiol] | > 10000 | > 10 | 4.05 ± 2.95 | -3.34 ± 1.78 | – |
| Cn1nc(N)c2c(Nc3ccc(F)cc3)nc3ccccc3c21 [Compound 4, 4-(4-Fluoroanilino)-1-methyl-1H-pyrazolo[4,3-c]quinolin-3-amine] | 1440 ± 220 | 5.5 ± 1.5 | 91.2 ± 4.43 | 68 ± 6.8 | – |
| COc1cc(Nc2nc3ccccc3c3c2c(N)nn3C)cc(OC)c1OC [Compound 8, 4-(3,4,5-Trimethoxyanilino)-1-methyl-1H-pyrazolo[4,3-c]quinolin-3-amine] | 800 ± 90 | 3.25 ± 0.08 | 98.2 ± 2.41 | 89.8 ± 6.51 | – |
| Cn1nc(N)c2c(Nc3ccccc3O)nc3ccccc3c21 [Compound 11, 4-(2-Hydroxyanilino)-1-methyl-1H-pyrazolo[4,3-c]quinolin-3-amine] | 730 ± 230 | 2.24 ± 0.91 | 93.5 ± 1.75 | 101 ± 4.5 | – |
| COc1ccccc1Nc1nc2ccccc2c2c1c(N)nn2C [Compound 5, 4-(2-Methoxyanilino)-1-methyl-1H-pyrazolo[4,3-c]quinolin-3-amine] | 1370 ± 80 | 4.65 ± 2.57 | 90.1 ± 3.38 | 66 ± 6.51 | – |
| COc1ccc(Nc2nc3ccccc3c3c2c(N)nn3C)cc1 [Compound 7, 4-(4-Methoxyanilino)-1-methyl-1H-pyrazolo[4,3-c]quinolin-3-amine] | 510 ± 170 | 3.77 ± 0.71 | 99.3 ± 1.51 | 96.7 ± 6.56 | – |
| Cn1nc(N)c2c(Nc3ccc(Cl)cc3)nc3ccccc3c21 [Compound 17, 4-(4-Chloroanilino)-1-methyl-1H-pyrazolo[4,3-c]quinolin-3-amine] | 3490 ± 1250 | 5.28 ± 0.66 | 82.8 ± 5.36 | 75.8 ± 6.64 | – |
| Cn1nc(N)c2c(Nc3ccc(C(F)(F)F)cc3)nc3ccccc3c21 [Compound 14, 4-(4-Trifluoromethylanilino)-1-methyl-1H-pyrazolo[4,3-c]quinolin-3-amine] | 4560 ± 830 | > 10 | 63.1 ± 2.51 | 37.6 ± 6.22 | – |
| Cn1nc(N)c2c(Nc3cccc(O)c3)nc3ccccc3c21 [Compound 12, 4-(3-Hydroxyanilino)-1-methyl-1H-pyrazolo[4,3-c]quinolin-3-amine] | 1890 ± 690 | 4.62 ± 1.74 | 93.2 ± 3.66 | 94.4 ± 8.34 | – |
| Cn1nc(N)c2c(Nc3ccc(C(=O)O)cc3)nc3ccccc3c21 [Compound 15, 4-[(3-Amino-1-methyl-1H-pyrazolo[4,3-c]quinolin-4-yl)amino]benzoic acid] | 1830 | 3.68 ± 0.42 | 82.9 ± 2.86 | 79.4 ± 1.91 | – |

Second part, led by results:

| IC50 (human neutrophils [1]) [nM] | IC50 (human neutrophils [2]) [µM] | Compound | inhibition at 10 µM (human neutrophils [1]; at 10 µM concentration) [%] | inhibition at 10 µM (human neutrophils [2]) [%] | Superoxide Anion Inhibition % (human neutrophils [1]; at 10 µM concentration) |
| --- | --- | --- | --- | --- | --- |
| > 10000 | > 10 | COc1ccccc1Nc1nc2ccccc2c2onc(N)c12 [Compound 21, 4-(2-Methoxyanilino)isoxazolo[4,5-c]quinolin-3-amine] | 32.7 ± 4.92 | -8.32 ± 2.23 | – |
| 4540 ± 1180 | 5.77 ± 1.14 | Nc1noc2c1c(Nc1ccccc1O)nc1ccccc12 [Compound 28, 4-(2-Hydroxyanilino)isoxazolo[4,5-c]quinolin-3-amine] | 91 ± 1.69 | 77.6 ± 4.52 | – |
| 2880 ± 270 | > 10 | CC(=O)c1cccc(Nc2nc3ccccc3c3onc(N)c23)c1 [Compound 26, 4-(3-Acetoylanilino)isoxazolo[4,5-c]quinolin-3-amine] | 76.2 | -4.55 ± 5.83 | – |
| – | 7.24 ± 0.72 | Cc1ccc(Nc2nc3ccccc3c3onc(N)c23)cc1 [Compound 33, 4-(4-Methylanilino)isoxazolo[4,5-c]quinolin-3-amine] | – | 68 ± 5.23 | enhanced |
| 6160 ± 1180 | > 10 | Nc1noc2c1c(Nc1ccc(F)cc1)nc1ccccc12 [Compound 20, 4-(4-Fluoroanilino)isoxazolo[4,5-c]quinolin-3-amine] | 63.2 ± 7.76 | 10.7 ± 4 | – |
| 650 ± 200 | > 10 | Nc1noc2c1c(Nc1ccc(O)cc1)nc1ccccc12 [Compound 29, 4-(4-Hydroxyanilino)isoxazolo[4,5-c]quinolin-3-amine] | 91.1 ± 0.38 | 29.9 ± 6.66 | – |
| > 10000 | > 10 | Nc1noc2c1c(Nc1ccc(Cl)cc1)nc1ccccc12 [Compound 32, 4-(4-Chloroanilino)isoxazolo[4,5-c]quinolin-3-amine] | 38.6 ± 2.3 | 3.69 ± 3.42 | – |
| 5210 ± 1900 | > 10 | Cc1ccc(Nc2nc3ccccc3c3c2c(N)nn3C)cc1 [Compound 18, 4-(4-Methylanilino)-1-methyl-1H-pyrazolo[4,3-c]quinolin-3-amine] | 69.7 ± 7.05 | 39.7 ± 3.83 | – |
| 6530 ± 900 | > 10 | COc1cccc(Nc2nc3ccccc3c3onc(N)c23)c1 [Compound 22, 4-(3-Methoxyanilino)isoxazolo[4,5-c]quinolin-3-amine] | 69.2 ± 3.14 | -3.61 ± 0.98 | – |
| > 10000 | > 10 | CC(=O)c1ccc(Nc2nc3ccccc3c3onc(N)c23)cc1 [Compound 27, 4-(4-Acetoylanilino)isoxazolo[4,5-c]quinolin-3-amine] | 37.4 ± 5.43 | -9.53 ± 5.26 | – |
| > 10000 | > 10 | Nc1noc2c1c(Nc1ccc(C(=O)O)cc1)nc1ccccc12 [Compound 31, 4-[(3-aminoisoxazolo[4,5-c]quinolin-4-yl)amino]benzoic acid] | 7.44 ± 4.23 | -1.4 ± 3.53 | – |
| > 10000 | > 10 | Nc1noc2c1c(Nc1ccccc1)nc1ccccc12 [Compound 19, 4-Anilinoisoxazolo[4,5-c]quinolin-3-amine] | 43.7 ± 6.43 | 5.81 ± 5.22 | – |
